{"source": "patent US20250114373A1", "about": "“[…] INSERT COMPRISING AN ANTIMICROBIAL AGENT” (OCULAR THERAPEUTIX, INC., priority 2022, published 2025)", "origin": "cited, not measured here", "details_in_all_cases": "values from Proksch, 2009", "key": {"[1]": {"tested_on": "S. epidermidis"}, "[2]": {"tested_on": "H. influenzae"}, "[3]": {"tested_on": "S. aureus"}, "[4]": {"tested_on": "S. pneumoniae"}}, "data": [{"smiles": "N[C@@H]1CCCCN(c2c(F)cc3c(=O)c(C(=O)O)cn(C4CC4)c3c2Cl)C1", "note": "[Besifloxacin, (R)-7-(3-aminohexahydro-1H-azepin-1-yl)-8-chloro-1-cyclopropyl-6-fluoro-1,4-dihydro-4-oxo-3-quinolinecarboxylic acid]", "values": [{"measurement": "MIC90", "setting": "[1]", "result": "(MIC90 of 0.5 μg/mL"}, {"measurement": "MIC90", "setting": "[2]", "result": "(MIC90 of 0.06 μg/mL"}, {"measurement": "MIC90", "setting": "[3]", "result": "(MIC90 of 0.25 μg/mL"}, {"measurement": "MIC90", "setting": "[4]", "result": "(MIC90 of 0.125 μg/mL"}]}]}
